Here are results for 22 compounds from patent US8658794B2, “8-methyl-1-phenyl-imidazol[1,5-a]pyrazine compounds as Lck inhibitors and uses thereof” (Merck Sharp & Dohme B.V., priority 2010, dated 2014).

SMILES strings stand for the structures.

The target of the test is T1, N-terminal His6-tagged recombinant full-length human Lck (Homo sapiens, UniProt P06239).
T1 construct: N-terminal His6-tagged recombinant full-length human Lck; His6 (N); purchased Millipore
T1 sequence (P06239 whole entry): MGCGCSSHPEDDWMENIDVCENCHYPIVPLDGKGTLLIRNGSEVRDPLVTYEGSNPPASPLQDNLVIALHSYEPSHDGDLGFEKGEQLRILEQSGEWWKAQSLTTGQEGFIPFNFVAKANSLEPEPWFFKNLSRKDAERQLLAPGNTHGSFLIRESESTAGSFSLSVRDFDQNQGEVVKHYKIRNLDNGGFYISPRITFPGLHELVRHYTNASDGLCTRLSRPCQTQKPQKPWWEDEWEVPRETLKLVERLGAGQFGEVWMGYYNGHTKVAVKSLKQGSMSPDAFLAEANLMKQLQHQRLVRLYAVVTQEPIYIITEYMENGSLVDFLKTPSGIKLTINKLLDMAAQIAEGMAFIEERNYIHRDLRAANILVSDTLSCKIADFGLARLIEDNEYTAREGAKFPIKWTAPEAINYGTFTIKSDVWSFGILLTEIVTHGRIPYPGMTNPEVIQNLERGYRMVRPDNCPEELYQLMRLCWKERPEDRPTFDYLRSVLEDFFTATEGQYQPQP
The test is described as follows: Lck IMAP assay. The format is biochemical. The following applies: ATP 6 μM (KM,ATP), enzyme pre-incubated with compounds for 60 minutes, values given as bins. An excerpt: Inhibition of kinase activity can be measured using the Immobilized Metal Assay for Phosphochemicals (IMAP) assay. IMAP is a homogeneous fluorescence polarization (FP) assay based on affinity capture of phosphorylated peptide substrates. IMAP uses fluorescein-labeled peptide substrates that, upon phosphorylation by a protein kinase, bind to so-called IMAP nanoparticles, which are derivatized with trivalent metal complexes. Binding causes a change in the rate of the molecular motion of the peptide, and results in an increase in the FP value observed for the fluorescein label attached to the substrate peptide (Gaudet et al. A homogeneous fluorescence polarization assay adaptable for a range of protein serine/threonine and tyrosine kinases. J. Biomol. Screen (2003) 8, 164-175).
Enzyme used was N-terminal His6-tagged recombinant full-length human Lck from Millipore. Phosphorylation substrate was a fluorescein-labeled peptide (5FAM-KVEKIGEGTYGVV—NH2) derived from p34cdc2 from Molecular Devices. Enzymes, substrate and ATP were diluted in Kinase Reaction buffer (10 mM Tris-HCl, 10 mM MgCl2, 0.01% Tween-20, 0.05% NaN3 pH 7.2, 1 mM DTT (dithiotreitol). The final volume at the kinase reaction step of the assay in the 384-well plate was 20 μl. Final amount of enzyme in the reaction was 0.1 U/ml. Enzyme was pre-incubated with compounds diluted in 1% DMSO (dimethylsulfoxide) for 60 minutes at room temperature in the dark. Subsequently, peptide substrate to a final concentration of 100 nM, and ATP to a final concentration of 6 μM were added and the mix was incubated for 120 minutes at room temperature in the dark. IMAP progressive binding buffer (75% 1× buffer A, 25% 1× buffer B with 1:600 Progressive Binding Reagent; Molecular Devices) was added, followed by an incubation step of 60 minutes at room temperature in the dark. Finally, the FP signal was read on an Envision Multilabel reader (Perkin Elmer).
All biochemical assays were run at KM,ATP of the enzyme using non-saturated conditions, meaning that during the incubation time it was assured that the signal increase was linear with time. For all biochemical assays a reference standard was used on each plate.
Ten point serial dilutions using a √10 dilution factor were used for dose response testing of compounds. Starting concentration was 10^-6M for Lck IMAP assays. Dose-response curves were run as two experiments on duplicate plates (N=1; n=2). All data was normalized to percentage effect based on maximum (Max) and minimum (Min) control values. On every 384 assay plate 16 wells were used as minimum wells (wells with ATP, 0% effect) and 16 wells were used as maximum wells (wells without ATP, 100% effect). 16 wells were used for measuring the background signal, obtained from a kinase reaction containing all constituents except the labeled peptide substrate. Percentage effect was plotted against log dilution concentration of compound to obtain sigmoid dose response curves. pIC50 values were calculated using ActivityBase.
Consider `COC(=O)N1CCC(c2nc(-c3ccc(NC(=O)c4cc5c(OC)cccc5n4C)c(OC)c3)c3c(C)nccn23)CC1` [Example 22, Methyl 4-(1-(3-methoxy-4-(4-methoxy-1-methyl-1H-indole-2-carboxamido)phenyl)-8-methylimidazo[1,5-a]pyrazin-3-yl)piperidine-1-carboxylate], for which the IC50 (commonly the concentration that inhibits the measured activity by half) was not above 10 nM. Next, `COc1cc(-c2nc(N3CCN(C)CC3)n3ccnc(C)c23)ccc1NC(=O)c1cc2ccccc2n1C` [Example 23, N-(2-methoxy-4-(8-methyl-3-(4-methylpiperazin-1-yl)imidazo[1,5-a]pyrazin-1-yl)phenyl)-1-methyl-1H-indole-2-carboxamide]: not above 10 nM; `COc1cc(-c2nc(N3CCOCC3)n3ccnc(C)c23)ccc1NC(=O)c1cc2ccccc2n1C` [Example 24, N-(2-methoxy-4-(8-methyl-3-(morholin-4-yl)imidazo[1,5-a]pyrazin-1-yl)phenyl)-1-methyl-1H-indole-2-carboxamide]: not above 10 nM. Next, `COc1cc(-c2nc(N3CCC(N4CCOCC4)CC3)n3ccnc(C)c23)ccc1NC(=O)OC(C)C` [Example 25, Isopropyl 2-methoxy-4-(8-methyl-3-(4-morpholinopiperidin-1-yl)imidazo[1,5-a]pyrazin-1-yl)phenylcarbamate]: 10 to 100 nM; `CCC[C@H](C)OC(=O)Nc1ccc(-c2nc([C@H]3CC[C@H](N(C)CCOC)CC3)n3ccnc(C)c23)cc1OC` [Example 26a, (S)-pentan-2-yl 2-methoxy-4-(3-((trans)-4-((2-methoxyethyl)(methyl)amino)cyclohexyl)-8-methylimidazo[1,5-a]pyrazin-1-yl)phenylcarbamate]: not above 10 nM; `COc1cc(-c2nc([C@H]3CC[C@H](N(C)C)CC3)n3ccnc(C)c23)ccc1NC(=O)c1cc2c(OC)cccc2n1C` [Example 26b, N-(4-(3-((trans)-4-(dimethylamino)cyclohexyl)-8-methylimidazo[1,5-a]pyrazin-1-yl)-2-methoxyphenyl)-4-methoxy-1-methyl-1H-indole-2-carboxamide]: not above 10 nM. Next, `COCCN(C)[C@H]1CC[C@@H](c2nc(-c3ccc(NC(=O)c4cc5c(OC)cccc5n4C)c(OC)c3)c3c(C)nccn32)CC1` [Example 26c, 4-methoxy-N-(2-methoxy-4-(3-((cis)-4-((2-methoxyethyl)(methyl)amino)cyclo-hexyl)-8-methylimidazo[1,5-a]pyrazin-1-yl)phenyl)-1-methyl-1H-indole-2-carboxamide]: not above 10 nM; `COc1cc(-c2nc([C@H]3CC[C@@H](N4CCOCC4)CC3)n3ccnc(C)c23)ccc1NC(=O)c1cc2c(OC)cccc2n1C` [Example 26d, 4-methoxy-N-(2-methoxy-4-(8-methyl-3-((cis)-4-morpholinocyclohexyl)imidazo[1,5-a]pyrazin-1-yl)phenyl)-1-methyl-1H-indole-2-carboxamide]: not above 10 nM; `COc1cc(-c2nc([C@H]3CC[C@@H](N(C)C)CC3)n3ccnc(C)c23)ccc1NC(=O)c1cc2c(OC)cccc2n1C` [Example 26e, N-(4-(3-((cis)-4-(dimethylamino)cyclohexyl)-8-methylimidazo[1,5-a]pyrazin-1-yl)-2-methoxyphenyl)-4-methoxy-1-methyl-1H-indole-2-carboxamide]: not above 10 nM. Take `CCC[C@H](C)OC(=O)Nc1ccc(-c2nc([C@H]3CC[C@@H](N4CCN(C(C)=O)CC4)CC3)n3ccnc(C)c23)cc1OC` [Example 26f, (S)-pentan-2-yl 4-(3-((cis)-4-(4-acetylpiperazin-1-yl)cyclohexyl)-8-methylimidazo[1,5-a]pyrazin-1-yl)-2-methoxyphenylcarbamate]: the IC50 is not above 10 nM. The figure for `CCC[C@H](C)OC(=O)Nc1ccc(-c2nc([C@H]3CC[C@@H](N4CC(F)(F)C4)CC3)n3ccnc(C)c23)cc1OC` [Example 26g, (S)-pentan-2-yl 4-(3-((cis)-4-(3,3-difluoroazetidin-1-yl)cyclohexyl)-8-methylimidazo[1,5-a]pyrazin-1-yl)-2-methoxyphenylcarbamate] is not above 10 nM; for `CCC[C@H](C)OC(=O)Nc1ccc(-c2nc([C@H]3C[C@H](N4CCN(C)CC4)C3)n3ccnc(C)c23)cc1OC` [Example 27, (S)-Pentan-2-yl 2-methoxy-4-(8-methyl-3-((1r,3r)-3-(4-methylpiperazin-1-yl)cyclobutyl)imidazo[1,5-a]pyrazin-1-yl)phenylcarbamate] it is not above 10 nM. Next, `CCC[C@H](C)OC(=O)Nc1ccc(-c2nc([C@H]3CC[C@H](N(CCOC)C(C)=O)CC3)n3ccnc(C)c23)cc1OC` [Example 29, (S)-Pentan-2-yl 2-methoxy-4-(3-((trans)-4-(N-(2-methoxyethyl)acetamido)cyclohexyl)-8-methylimidazo[1,5-a]pyrazin-1-yl)phenylcarbamate]: not above 10 nM; `COc1cc(-c2nc(C3CCN(C4CCOCC4)CC3)n3ccnc(C)c23)ccc1NC(=O)c1cc2c(OC)cccc2n1C` [Example 30, 4-Methoxy-N-(2-methoxy-4-(8-methyl-3-(1-(tetrahydro-2H-pyran-4-yl)piperidin-4-yl)imidazo[1,5-a]pyrazin-1-yl)phenyl)-1-methyl-1H-indole-2-carboxamide]: not above 10 nM; `CCC[C@H](C)OC(=O)Nc1ccc(-c2nc(N3CCN(C(C)=O)CC3)n3ccnc(C)c23)cc1OC` [Example 31, (S)-Pentan-2-yl 4-(3-(4-acetylpiperazin-1-yl)-8-methylimidazo[1,5-a]pyrazin-1-yl)-2-methoxyphenylcarbamate]: not above 10 nM.

In the case of `COc1cc(-c2nc(N3CCN(C4CCN(C(C)=O)CC4)CC3)n3ccnc(C)c23)ccc1NC(=O)c1cc2c(OC)cccc2n1C` [Example 32, N-(4-(3-(4-(1-Acetylpiperidin-4-yl)piperazin-1-yl)-8-methylimidazo[1,5-a]pyrazin-1-yl)-2-methoxyphenyl)-4-methoxy-1-methyl-1H-indole-2-carboxamide], the IC50 was not above 10 nM. The figure for `CCC[C@H](C)OC(=O)Nc1ccc(-c2nc([C@H]3CC[C@H](N4CCN(C)CC4)CC3)n3ccnc(C)c23)cc1OC` [Example 33a, (S)-pentan-2-yl 2-methoxy-4-(8-methyl-3-((trans)-4-(4-methylpiperazin-1-yl)cyclohexyl)imidazo[1,5-a]pyrazin-1-yl)phenylcarbamate] is not above 10 nM; for `COc1cc(-c2nc([C@H]3CC[C@H](N4CCN(C)CC4)CC3)n3ccnc(C)c23)ccc1NC(=O)c1cc2ccccc2n1C` [Example 33b, N-(2-methoxy-4-(8-methyl-3-((trans)-4-(4-methylpiperazin-1-yl)cyclohexyl)imidazo[1,5-a]pyrazin-1-yl)phenyl)-1-methyl-1H-indole-2-carboxamide 2,2,2-trifluoroacetate] it is not above 10 nM; for `COc1cc(-c2nc([C@H]3CC[C@H](N4CCN(C(C)=O)CC4)CC3)n3ccnc(C)c23)ccc1NC(=O)c1cc2ccccc2n1C` [Example 33c, N-(4-(3-((trans)-4-(4-acetylpiperazin-1-yl)cyclohexyl)-8-methylimidazo[1,5-a]pyrazin-1-yl)-2-methoxyphenyl)-1-methyl-1H-indole-2-carboxamide] it is not above 10 nM. As to `CCC[C@H](C)OC(=O)Nc1ccc(-c2nc([C@H]3CC[C@H](N4CCN(C(C)=O)CC4)CC3)n3ccnc(C)c23)cc1OC` [Example 33d, (S)-pentan-2-yl 4-(3-((trans)-4-(4-acetylpiperazin-1-yl)cyclohexyl)-8-methylimidazo[1,5-a]pyrazin-1-yl)-2-methoxyphenylcarbamate], the IC50 is not above 10 nM. The figure for `COc1cc(-c2nc([C@@H]3CCN(C(=O)CN(C)C)C3)n3ccnc(C)c23)ccc1NC(=O)c1cc2c(OC)cccc2n1C` [Example 33e, (R)—N-(4-(3-(1-(2-(dimethylamino)acetyl)pyrrolidin-3-yl)-8-methylimidazo[1,5-a]pyrazin-1-yl)-2-methoxyphenyl)-4-methoxy-1-methyl-1H-indole-2-carboxamide] is not above 10 nM. The figure for `CCC[C@H](C)OC(=O)Nc1ccc(-c2nc([C@H]3CC[C@@H](N4CCN(C)CC4)CC3)n3ccnc(C)c23)cc1OC` [Example 33f, (S)-pentan-2-yl 2-methoxy-4-(8-methyl-3-((cis)-4-(4-methylpiperazin-1-yl)cyclohexyl)imidazo[1,5-a]pyrazin-1-yl)phenylcarbamate] is not above 10 nM.
